Counter-ions that a name gives are not always drawn.
The compounds below were run on phenyl-para-quinone induced writhing (assay: phenyl-para-quinone writhing assay in mice (Analgesic PQW)). Settings: 20 mg/kg, s.c.
Format: in vivo
Description: The compounds of the present invention are also useful as analgesic agents due to their ability to alleviate pain in mammals. […] Exptl. Biol. Med., 95, 729 (1957)]. Presented in Table 2 is the analgesic effect of some of the compounds of the invention expressed as either the subcutaneous dose at which 50% of the phenyl-para-quinone induced writhing is inhibited in the animals, i.e., the ED50 value, or at the % decrease in writhing at a give dose.

Point of comparison: C[N+](C)(C)CCOP(=O)([O-])OCCCC(O)CCCCCCCCCOc1ccccc1 (stereo not shown) [4,9-Dihydroxy-N,N,N-trimethyl-3,5-dioxa-18-phenoxy-4-phosphaoctadecan-1-aminium, 4-oxide, hydroxide, inner salt dihydrate], “Analgesic PQW % Inhibition of Writhing” value 48%. Against it:
- CCCCCCCCCCCCCCCC(O)CCCOP(=O)([O-])OCC[N+]1(C)CCCC1 (stereo not shown) [4,9-Dihydroxy-N-methyl-3,5-dioxa-4-phosphatetetracosan-1-pyrrolidinium, 4-oxide, hydroxide, inner salt 3.5 hydrate] — higher, 62%
- CCCCCCCCCC(CCCOP(=O)([O-])OCC[N+](C)(C)C)OCc1ccccc1 (stereo not shown) [4-Hydroxy-N,N,N-trimethyl-9-phenylmethoxy-3,5-dioxa-4-phosphaoctadecan-1-aminium, 4-oxide, hydroxide, inner salt monohydrate] — higher, 83%
- CCCCCCCCCCCCCCCC(CCCOP(=O)([O-])OCC[N+](C)(C)C)OCc1ccccc1 (stereo not shown) [4-Hydroxy-N,N,N-trimethyl-9-phenylmethoxy.3,5-dioxa-4-phosphatetracosan-1-aminium, 4-oxide, hydroxide, inner salt monohydrate] — lower, 36%
